From US20250359578A1, “WATER-SOLUBLE CREATINE AGGLOMERATE” (Alzchem Trostberg GmbH, priority 2022, published 2025)

Tests used:
Assay type in all cases: physicochemical
[1] = Determination of the grain size distribution (laser diffraction, HELOS/KR)
Procedure: 7. Determination of the Grain Size Distribution
The grain size distribution was determined using a laser diffraction method on a “HELOS/KR” grain size measuring device from Sympatec GmbH. The R6 measuring aperture was used, which covers a measuring range of 0.5 to 1750 μm. The sample was fed via a vibrating chute with 60% power and a dispersion pressure of 2.5 bar. The software version “WINDOX 5.1.2.0, LD” was used for evaluation. Setting the trigger conditions: Time base 100.00 ms, start at c.opt>=1.0%, validity c.opt from 1.0% to 14.0%, stop at 5.000s c.opt<=0.9% or 10.000s real time. The x10, x50 and x90 values were used to assess the agglomerate quality, represented as the distribution sum Q3 in a histogram of the grain size distribution.

[2] = Determination of the dissolution rate (mass of filter residue); details: 1.75 g in 175 ml water at 23° C., stirred 10 seconds
Excerpt: The moist filter residue is dried. The mass of the filter residue serves as a measure of the dissolution rate; the lower the mass, the better the dissolution rate.

[3] = Determination of dustiness (DustView II); details: 30.0 g sample, maximum attenuation plus value at 30 seconds
Procedure: 5. Determination of Dustiness
The dustiness of solids (powders and agglomerates) is represented in the dimensionless dust number. The dust number is determined using the DustView II dust measuring device from Palas GmbH, Karlsruhe.
Thereby, 30.0 g of a sample is weighed and placed in the funnel on the flap. The measurement is then started by pressing a button on the control panel. The flap opens and the solid falls freely into the dust box. The impact of the solid material whirls up the dust particles. As a result, the light beam emitted by the laser is attenuated by the swirling dust and the attenuated light beam is detected at the receiver. The degree of attenuation (transmission signal) compared to the light beam emitted by the light source is a measure of the dustiness of the solid. A value of 100 means the maximum possible attenuation of the light beam and a value of 0 means no attenuation of the light beam. To determine the dust number, the value of the maximum attenuation of the light beam is added to the value at 30 seconds after the start of the measurement and output as the dust number.
The lower the dust number, the less dusty the solid is.

[4] = Determination of flowability (Evolution Powder Tester); details: compression, no time consolidation
Procedure: 4. Determination of Flowability
Flowability of solids (powders and agglomerates) is determined using the “Evolution Powder Tester” measuring device from PS Prozesstechnik GmbH, Basel, Switzerland. Flowability is shown in the dimensionless number [ffc]. The method used is determination by compression on the Evolution Powder Tester; no time consolidation is carried out. For this purpose, 25 mL of the solid is weighed into the measuring cell and placed in the measuring device. After starting the measurement, the solid is compressed in the measuring cell at a stamping speed of 15 mm per minute and a force (F1) of 10000 kPa for 30 seconds. The resulting solid compact in the measuring cell is then loaded again with a stamping speed of 10 mm per minute and slowly increasing force (F2) until the solid compact breaks. The ratio of the force (F1) for compression and the force (F2) for breaking the compact corresponds to the flowability [ffc] and is calculated using the formula: […]
The following assessment applies to the classification of flowability [ffc]: […]

[5] = Determination of the bulk density (DIN ISO 697)
Procedure: 6. Determination of the Bulk Density
The bulk density was determined according to the method DIN ISO 697 (1984-01) surfactants; detergents; determination of bulk density; method by measuring the mass of a given volume.
The higher the bulk density, the more advantageous the handling.

[6] = Determination of pourability (drainage funnel); design: key: Solid trickles through the 2.5 mm outlet: Grade 1; Solid trickles through the 5 mm outlet: Grade 2; Solid trickles through the 8 mm outlet: Grade 3; Solid trickles through the 12 mm outlet: Grade 4; Solid trickles through the 18 mm outlet: Grade 5; Solid does not trickle through the 18 mm outlet: Grade 6; details: grade by outlet diameter of test funnel, 50 mL sample; lower grade is better
Procedure: 2. Determination of Pourability (Drainage Funnel):
The test equipment consists of five test funnels with the same diameter (36 mm inner diameter) and 28 degree tilt, but with different outlet diameters (2.5 mm; 5 mm; 8 mm; 12 mm and 18 mm). A 50 mL sample of creatine or the creatine formulation is filled into the test funnel, whereby the outlet is closed from below so that no material can drain during filling. In the next step, the outlet is opened completely—without shaking the test funnel—so that the entire outlet cross-section is released. The evaluation parameter is the diameter at which the solid trickles through independently and without external influence.
The lower the grade, the better the pourability.

[7] = Determination of the angle of repose (DIN ISO 4324)
Procedure: 3. Determination of the Angle of Repose
The angle of repose was determined according to the method DIN ISO 4324 (1983-12) Surfactants; powders and granules; determination of the angle of repose. The smaller the angle of repose, the better the flow properties.

Row | Compound | Grain size distribution ×50 value ([1]; distribution sum Q3, listed as non-ground creatine monohydrate, monohydrate) [μm] | Undissolved portion to 1.75 g [2] [mg] | Dustiness [dust number] [3] | Flowability [ffc] [4] | Bulk density [5] [g/L] | Grain size distribution ×10 value ([1]; distribution sum Q3) [μm] | Grain size distribution ×90 value ([1]; distribution sum Q3) [μm] | Grain size distribution ×50 value ([1]; distribution sum Q3, monohydrate) [μm] | Pourability [6] | Angle of repose [7] [°]
1 | CN(CC(=O)O)C(=N)N.O [creatine monohydrate] | 171 | 632.9 |  |  |  |  |  |  |  | 
2 | CN(CC(=O)O)C(=N)N.O [Example 6, creatine monohydrate] |  |  | 23.2 | 1.9 | 270 | 1.32 | 45.8 | 13.0 | 6 | 54
